According to paper PMC10619976, “Structural basis of EHEP-mediated offense against phlorotannin-induced defense from brown algae to protect akuBGL activity” (eLife, 2023):

Target: T1, akuBGL (110 kDa β-glucosidase) (Aplysia kurodai, UniProt A0A1V1FXL2)
T1 construct: gene ApBGL; native, purified from digestive fluid; signal peptide M1-D25 removed; 110 kDa; two GH1 domains (L26-T494, D513-P978); N-glycosylated at N113, N212, N645; precursor ends at M994
Test: HPLC or absorbance at […] nm of o-nitrophenol
Assay type: biochemical
Conditions: 2.5 mM ONPG, 49 nM akuBGL, pH 5.5, 100 mM NaCl, 10 mM CaCl2, 37 °C, 10 min

T1 sequence (A0A1V1FXL2 entry or part of it): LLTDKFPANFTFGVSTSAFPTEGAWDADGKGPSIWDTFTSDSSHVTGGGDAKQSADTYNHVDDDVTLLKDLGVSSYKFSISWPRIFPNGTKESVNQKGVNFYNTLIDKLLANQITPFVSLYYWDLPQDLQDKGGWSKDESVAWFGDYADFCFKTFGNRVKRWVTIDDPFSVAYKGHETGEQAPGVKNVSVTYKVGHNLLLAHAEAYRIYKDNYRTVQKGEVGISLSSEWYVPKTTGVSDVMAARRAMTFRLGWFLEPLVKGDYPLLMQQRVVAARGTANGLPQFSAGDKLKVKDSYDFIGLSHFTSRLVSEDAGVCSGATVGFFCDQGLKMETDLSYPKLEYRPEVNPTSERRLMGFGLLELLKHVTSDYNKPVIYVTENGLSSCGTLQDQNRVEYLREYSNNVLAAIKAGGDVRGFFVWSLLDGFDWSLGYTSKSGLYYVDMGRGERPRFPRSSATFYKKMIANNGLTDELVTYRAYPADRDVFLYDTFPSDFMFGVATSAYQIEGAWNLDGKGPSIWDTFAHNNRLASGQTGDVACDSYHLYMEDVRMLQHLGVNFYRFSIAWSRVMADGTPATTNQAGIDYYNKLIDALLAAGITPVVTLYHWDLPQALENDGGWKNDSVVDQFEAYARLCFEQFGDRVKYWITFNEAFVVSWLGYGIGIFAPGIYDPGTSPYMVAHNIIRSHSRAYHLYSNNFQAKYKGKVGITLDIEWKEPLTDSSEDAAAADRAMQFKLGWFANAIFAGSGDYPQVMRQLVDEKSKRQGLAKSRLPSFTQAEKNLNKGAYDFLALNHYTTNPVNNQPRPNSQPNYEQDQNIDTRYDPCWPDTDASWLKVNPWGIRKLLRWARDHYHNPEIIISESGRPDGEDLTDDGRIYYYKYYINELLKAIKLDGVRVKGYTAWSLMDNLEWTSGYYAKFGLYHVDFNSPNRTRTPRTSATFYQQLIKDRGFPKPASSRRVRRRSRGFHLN

SMILES: O=[N+]([O-])c1ccccc1O[C@@H]1O[C@H](CO)[C@H](O)[C@H](O)[C@H]1O [ortho-nitrophenyl-β-galactoside]
- HPLC or absorbance at 420 nm of o-nitrophenol: Ortho-nitrophenyl-β-galactoside (ONPG) was used as a substrate to measure akuBGL activity
